Assay: In vivo biodistribution of co-delivered barcoded LNPs by Next Generation Sequencing of barcodes in tissues
Set-up: species or system BALB/c mice
Settings: liver, kidney, lung, heart and brain; tail vein, 0.01 mg/kg per barcoded payload; compared with formulations using Lipids 1 and 3
Procedure: LNP/barcode complexes were prepared as described in Example 5. LNP/Barcode complex formulations were made by mixing different LNP/Barcode complex formulations together in equal parts (unless otherwise noted), to form Study Groups 1 and 2. Study Group 1 was dosed with a complex formulation that included formulations F-1, F-2, F-3, F-4, F-5, F-6, F-7, F-8 and F-16 in equal parts. Study Group 2 was dosed with a complex formulation that included formulations F-9, F-10, F-11, F-12, F-13, F-14, F-15, F-16 and F-17 in equal parts, except for F-10 which was mixed at 1/10th the concentration. BALB/c mice were injected via tail vein with 0.01 mg/kg (per unique barcoded payload, except for oRNA2A in F-10, which was dosed at 0.001 mg/kg) for each of Study Groups 1 and 2 in a total volume of 5 mL/kg. Each Study Group was dosed in 6 mice, and an additional 3 mice were dosed with PBS control. At 6 hr post injection, 3 animals from Study Group 1 were humanely euthanized by CO2 inhalation and organs including liver, spleen, lung, heart, kidney, brain, and blood were collected and snap frozen using liquid nitrogen. […] BLI images were detected in the auto-exposure mode. The BLI signal was quantitated using Living Image 4.7 software (Perkin Elmer) following the manufacturer's instruction. After BLI analysis the weights of the collected organs was measured. […]

delivery to organs (barcode ratios normalized to the input material): superior delivery in most organs tested
Compound: CCCCCCCCCCCCCCCCCC[N+](C)(CCCCCCCCCCCCCCCCCC)CCNC(=N)N.[Cl-] [Lipid 2]
